# Source: PMC3490489 (Clinical cancer research : an official journal of the …, 2012)
# Like-named read-outs stand apart in the source and are kept apart here.
# T1: UGT1A9 (Homo sapiens, UniProt O60656)
# T1 sequence (O60656 26-530): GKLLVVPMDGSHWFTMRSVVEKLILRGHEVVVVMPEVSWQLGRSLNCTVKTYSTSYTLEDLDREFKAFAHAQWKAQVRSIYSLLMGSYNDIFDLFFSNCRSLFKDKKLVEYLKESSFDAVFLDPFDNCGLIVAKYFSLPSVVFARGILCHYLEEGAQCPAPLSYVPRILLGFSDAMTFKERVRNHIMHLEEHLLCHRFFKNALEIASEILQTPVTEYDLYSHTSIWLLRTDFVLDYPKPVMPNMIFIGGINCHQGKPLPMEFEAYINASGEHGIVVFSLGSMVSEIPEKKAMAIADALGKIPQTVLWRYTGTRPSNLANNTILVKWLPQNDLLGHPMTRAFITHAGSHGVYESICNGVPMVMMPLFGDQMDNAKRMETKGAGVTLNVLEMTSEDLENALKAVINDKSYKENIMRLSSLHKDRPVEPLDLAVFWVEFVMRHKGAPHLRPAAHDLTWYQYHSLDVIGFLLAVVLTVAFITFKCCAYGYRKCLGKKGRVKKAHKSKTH
# Tests used:
# [1] = cited from earlier work
# UGT1A9 [2] = molecular target: T1, UGT1A9; test: Inhibition of UGT1A9-mediated sorafenib glucuronidation by azole antifungals; format: biochemical
# [3] = format: in vivo, human
# [4] = system: human liver microsomes (HLM); test: Sorafenib N-oxide formation in microsomes from human liver samples; format: in vitro ADME; conditions: 10 to 15 year age group, sorafenib 10 µM, 60 min
# AML cell lines = conditions: cited from earlier work
# UGT1A9 [5] = molecular target: T1, UGT1A9; conditions: panel of purified human UGT enzymes
# not read = substrate: CNC(=O)c1cc(Oc2ccc(NC(=O)Nc3ccc(Cl)c(C(F)(F)F)c3)cc2)ccn1; test: not read; conditions: other: purified human UGT1A9
molecule,measurement,setting,value
CCNCCNC(=O)c1c(C)[nH]c(/C=C2\C(=O)Nc3ccc(F)cc32)c1C [N-desethyl-sunitinib],Share of total pharmacologic activity accounted for by the active metabolite,[1]; cancer patients given sunitinib,30–50%
"CC(=O)N1CCN(c2ccc(OCC3COC(Cn4ccnc4)(c4ccc(Cl)cc4Cl)O3)cc2)CC1 (stereo not drawn) [ketoconazole, reference compound]",Ki,UGT1A9 [2],2200 nM
same,Effect of ketoconazole on sorafenib plasma clearance,[1]; healthy subjects,no effect on sorafenib plasma clearance
"CC[C@@H]([C@H](C)O)n1ncn(-c2ccc(N3CCN(c4ccc(OC[C@@H]5CO[C@@](Cn6cncn6)(c6ccc(F)cc6F)C5)cc4)CC3)cc2)c1=O [posaconazole, reference compound]",Inhibition of sorafenib glucuronidation in vitro,UGT1A9 [2],weak inhibitors of sorafenib glucuronidation
same,Effect on sorafenib N-oxide production in vivo,children given sorafenib concurrent with the azole,reduced N-oxide production to negligible levels
CNC(=O)c1cc(Oc2ccc(NC(=O)Nc3ccc(Cl)c(C(F)(F)F)c3)cc2)cc[n+]1[O-] [sorafenib N-oxide],"Mean sorafenib N-oxide metabolite ratio (metabolite Css,ave / sorafenib Css,ave)",[3]; all patients,~ 0.30
same,CV% of sorafenib N-oxide metabolite ratio,[3]; boys greater than 10 years,11%
same,CV% of sorafenib N-oxide metabolite ratio,[3]; boys ≤ 10 years,39%
same,Conversion to sorafenib N-oxide,[3]; boys ≤ 10 years,40%
same,Sorafenib N-oxide metabolite ratio,[3]; boys ≤ 10 years,0.40±0.15
same,Mean conversion to sorafenib N-oxide,[3]; children 1 to 19 years,27%
same,"N-oxide metabolite ratio, boys versus girls",[3]; children ≤ 10 years,approximately 2 fold
same,"Circulating concentrations of sorafenib N-oxide, mean","[3]; children, sorafenib 200 mg/m^2",2 to 3 µM
same,Sorafenib N-oxide metabolite ratio,"[3]; females, all ages",0.22±0.10
same,CV% of sorafenib N-oxide metabolite ratio,[3]; girls greater than 10 years,20%
same,CV% of sorafenib N-oxide metabolite ratio,[3]; girls ≤ 10 years,59%
same,Sorafenib N-oxide metabolite ratio,[3]; girls ≤ 10 years,0.22±0.12
same,Sorafenib N-oxide metabolite ratio,[3]; males older than 10 years,0.18±0.021
same,Sorafenib N-oxide metabolite ratio,"[3]; males, all ages",0.26±0.15
same,"Sorafenib N-oxide formation velocity, median",[4]; females,−1.5 log[µM/min/mg HLM]
same,"Sorafenib N-oxide formation velocity, median",[4]; males,−1.1 log[µM/min/mg HLM]
same,Rate of conversion of sorafenib to sorafenib N-oxide,[1]; adults with AML,< 10%
same,Sorafenib N-oxide as share of circulating sorafenib concentrations,[1]; healthy subjects and cancer patients,approximately 10%
same,Rate of conversion of sorafenib to sorafenib N-oxide,[1]; twelve children with relapsed/refractory AML,33%
same,Cytotoxic activity,AML cell lines,exhibited cytotoxic activity
same,N-oxide metabolite ratio,"first patient, day 383, concurrent oral voriconazole 150 mg twice daily",0.05
same,N-oxide metabolite ratio,"second patient, day 575, concurrent oral voriconazole 150 mg twice daily",0.05
same,N-oxide metabolite ratio,"second patient, day 607, concurrent oral voriconazole 150 mg twice daily",0.09
"CNC(=O)c1cc(Oc2ccc(NC(=O)Nc3ccc(Cl)c(C(F)(F)F)c3)cc2)ccn1 [sorafenib, reference compound]",CV% of steady-state sorafenib CL/F,[3]; all 30 patients,58%
same,"Steady-state sorafenib apparent oral clearance (CL/F), mean±standard deviation",[3]; all 30 patients,64±37 mL/min/m^2
same,Enzyme responsible for sorafenib glucuronidation,UGT1A9 [5],UGT1A9 is primarily responsible for sorafenib glucuronidation
C[C@@H](c1ncncc1F)[C@](O)(Cn1cncn1)c1ccc(F)cc1F [voriconazole],Inhibition of sorafenib glucuronidation in vitro,UGT1A9 [2],weak inhibitors of sorafenib glucuronidation
UGT1A9 (Homo sapiens) (protein) GKLLVVPMDGSHWFTMRSVVEKLILRGHEVVVVMPEVSWQLGRSLNCTVKTYSTSYTLEDLDREFKAFAHAQWKAQVRSIYSLLMGSYNDIFDLFFSNCRSLFKDKKLVEYLKESSFDAVFLDPFDNCGLIVAKYFSLPSVVFARGILCHYLEEGAQCPAPLSYVPRILLGFSDAMTFKERVRNHIMHLEEHLLCHRFFKNALEIASEILQTPVTEYDLYSHTSIWLLRTDFVLDYPKPVMPNMIFIGGINCHQGKPLPMEFEAYINASGEHGIVVFSLGSMVSEIPEKKAMAIADALGKIPQTVLWRYTGTRPSNLANNTILVKWLPQNDLLGHPMTRAFITHAGSHGVYESICNGVPMVMMPLFGDQMDNAKRMETKGAGVTLNVLEMTSEDLENALKAVINDKSYKENIMRLSSLHKDRPVEPLDLAVFWVEFVMRHKGAPHLRPAAHDLTWYQYHSLDVIGFLLAVVLTVAFITFKCCAYGYRKCLGKKGRVKKAHKSKTH,Km,not read,3.6 ± 0.22 µM
